# PMC9386326, “Dysregulated glucuronic acid metabolism exacerbates hepatocellular carcinoma progression and metastasis through the TGFβ signalling pathway” (Clinical and Translational Medicine, 2022)
# Target: T1, PTBP3 (Homo sapiens, UniProt O95758)
# T1 construct: endogenous full-length protein in human hepatoma (Huh7) cells / cell lysates
# Assay: CETSA (cell lysate, immunoblot) and DARTS (pronase)
# Format: biochemical
# Details: endogenous PTBP3 in Huh7 cells / lysates; stabilisation, authors call it potential direct binding
# T1 sequence (O95758 whole entry): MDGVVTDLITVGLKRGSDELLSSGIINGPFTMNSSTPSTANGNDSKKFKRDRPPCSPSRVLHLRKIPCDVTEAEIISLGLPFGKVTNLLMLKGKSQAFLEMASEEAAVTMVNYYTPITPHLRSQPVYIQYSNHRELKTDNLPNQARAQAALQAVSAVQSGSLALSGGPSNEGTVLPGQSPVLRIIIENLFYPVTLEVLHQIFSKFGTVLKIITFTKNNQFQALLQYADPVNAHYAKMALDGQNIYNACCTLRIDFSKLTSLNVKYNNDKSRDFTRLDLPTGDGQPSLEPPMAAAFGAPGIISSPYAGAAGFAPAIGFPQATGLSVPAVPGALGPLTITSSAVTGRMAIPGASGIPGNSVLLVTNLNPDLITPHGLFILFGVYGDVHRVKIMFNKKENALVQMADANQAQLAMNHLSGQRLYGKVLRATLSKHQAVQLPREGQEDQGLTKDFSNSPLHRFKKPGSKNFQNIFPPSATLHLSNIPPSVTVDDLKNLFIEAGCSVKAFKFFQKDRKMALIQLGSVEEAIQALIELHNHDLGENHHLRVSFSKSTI
structure (smiles),measurement,value
O=C(O)[C@H]1O[C@H](OP(=O)(O)OP(=O)(O)OC[C@H]2O[C@@H](n3ccc(=O)[nH]c3=O)[C@H](O)[C@@H]2O)[C@H](O)[C@@H](O)[C@@H]1O [UDP-GlcUA],"CETSA (cell lysate, immunoblot) and DARTS (pronase)","PTBP3 protein stability is enhanced upon UDP‐GlcUA treatment, suggesting a potential direct binding"
